Read-outs that look alike come from different tables or passages of the source.
Tests used:
[1] = system: human colon cancer HCT116; assay: Growth of human colon cancer HCT116 in allogeneic transplantation model; assay type: in vivo, nude mice
[2] = system: human pancreatic cancer BxPC-3; assay: Growth of human pancreatic cancer BxPC-3 in allogeneic transplantation model; assay type: in vivo, nude mice; settings: BxPC-3 model
[3] = system: HCT116; assay: In vitro inhibition of human tumor cells, HCT116, MTT method; assay type: cell-based
Procedure: (§1) The cells were allowed to adhere overnight.
(§2) Adherent cells: Culture medium was aspirated and 100 μl/wells of basal culture (generally refers to medium without fetal bovine serum (FBS) and other additives) containing 0.5 mg/ml MTT were added. The cells were cultured for 3 hours. MTT-containing basal medium was aspirated and 100 μl/wells of DMSO were added to dissolve formazan.
(§3) Unstably adherent cells: Unstably adherent cells were directly added to the MTT solution to achieve the concentration of 0.5 mg/ml and cultured for 3 hours. The ternary solution in an equal volume to the system was added to the system to dissolve the formazan.
(§4) The DMSO concentration was 0.1%.

[4] = system: SW620; assay: In vitro inhibition of human tumor cells, SW620, SRB method; assay type: cell-based
Description: as §1
(§5) Trichloroacetic acid was removed. […] Excess SRB was removed.
as §4

[5] = system: LoVo; assay: In vitro inhibition of human tumor cells, LoVo, SRB method; assay type: cell-based
Description: as §1, §5, §4

[6] = system: NCI-N87; assay: In vitro inhibition of human tumor cells, NCI-N87, MTT method; assay type: cell-based
[7] = system: BxPC-3; assay: In vitro inhibition of human tumor cells, BxPC-3, MTT method; assay type: cell-based
Procedure: as §1, §2, §3, §4

[8] = system: NCI-H460; assay: In vitro inhibition of human tumor cells, NCI-H460, MTT method; assay type: cell-based
Procedure: as §1, §2, §3, §4

[9] = system: human small cell lung cancer NCI-H446; settings: 20 mg/kg i.v. qw × 2; NCI-H446 model
[10] = system: MDA-MB-468; assay: In vitro inhibition of human tumor cells, MDA-MB-468, SRB method
[11] = system: human gastric cancer NCI-N87; assay: Growth of human gastric cancer NCI-N87 in allogeneic transplantation model; assay type: in vivo, nude mice; settings: for Relative volume RTV (X ± S.D.) / T/C (%) / Tumor inhibition rate (%) / Tumor weight (g, X ± S.D.): 20 mg/kg i.v. qw × 2
Procedure: The tumor volume was measured 2 to 3 times per week. […] The subcutaneous tumors were peeled and weighed.
The calculation formula of the tumor volume: Volume=0.5×long diameter×short diameter×short diameter.

[12] = system: human colon cancer HCT116; settings: 30 mg/kg i.v. qw × 2; HCT116 large tumor after irinotecan
Description: When the tumor volume was more than 600 mm^3 and stable growth was maintained, the experimental animals were randomly divided by the remainder method and administered according to the size of the tumor volume. […] The subcutaneous tumors were stripped and weighed.
T was the subject and C is the model control.
Tumor volume growth was observed on a regular basis after completion of dosing.

[13] = system: Fadu; assay: In vitro inhibition of human tumor cells, Fadu, MTT method; assay type: cell-based
[14] = system: human pancreatic cancer BxPC-3; settings: 30 mg/kg i.v. qw × 2
[15] = system: A375; assay: In vitro inhibition of human tumor cells, A375, SRB method
[16] = system: 22RV1; assay: In vitro inhibition of human tumor cells, 22RV1, SRB method
[17] = system: BEL-7404; assay: In vitro inhibition of human tumor cells, BEL-7404, SRB method
[18] = system: human colon cancer SW620; settings: 30 mg/kg i.v. qw × 2; SW620 model
[19] = No βGU (direct effects of compound on cells)
[20] = BxPC-3 large tumors after irinotecan

CCc1c2c(nc3ccc(OC(=O)N4CCC(N5CCCCC5)CC4)cc13)-c1cc3c(c(=O)n1C2)COC(=O)[C@]3(O)CC [irinotecan, reference compound]
Tumor inhibition rate (%) ([1]; 100 mg/kg i.p. qw × 2): 71.6% | Final body weight change (%) ([1]; 100 mg/kg i.p. qw × 2, nude mouse): −10.5% | Final body weight change (%) ([2]; 100 mg/kg i.p. qw × 2, d 17 data): 6.4%

(2S,3S,4S,5R,6S)-6-(3-((1-(2-(2-(2-((4′-((E)-(8-amino-1-hydroxy-5,7-disulfonicnaphthalen-2-yl)diazenyl)-3,3′-dimethyl-[1,1′-biphenyl]-4-yl)amino)-2-oxoethoxy)ethoxy)ethyl)-1H-1,2,3-triazol-4-yl)methoxy)-4-(((S)-4,11-diethyl-4-hydroxy-3,14-dioxo-3,4,12,14-tetrahydro-1H-pyrano[3′,4′:6,7]indolazino[1,2-b]quinolin-9-yl)oxy)methyl)phe noxy)-3,4,5-trihydroxytetrahydro-2H-pyran-2-carboxylate trisodium [Example 54]
IC50 ([3]; Adding βGU (β-glucuronidase)): 13 nM | IC50 [3, 19]: 259 nM | IC50 ([4]; Adding βGU): 15 nM | IC50 ([4]; No βGU): 549 nM | IC50 ([5]; Adding βGU): 9.3 nM | IC50 ([5]; No βGU): 275 nM | IC50 ([6]; Adding βGU): 38 nM | inhibition rate at 2 μM ([6]; No βGU, 2 μM): 2 μM about 46.1% | IC50 ([7]; Adding βGU): 8.8 nM | IC50 ([7]; No βGU): 638 nM | IC50 ([8]; Adding βGU): 11 nM | IC50 ([8]; No βGU): 360 nM | T/C (%) ([1]; 10 mg/kg i.v. qw × 2): 27.0% | Tumor inhibition rate (%) ([1]; 10 mg/kg i.v. qw × 2): 74.4% | Relative volume RTV (X ± S.D.) [9]: 0.61 ± 0.48 | T/C (%) [9]: 8.9% | Tumor inhibition rate (%) [9]: 90.5% | Tumor weight (g, X ± S.D.) [9]: 0.093 ± 0.080 g | IC50 ([10]; Adding βGU): 6.8 nM | IC50 ([10]; No βGU): 217 nM

(2S,3S,4S,5R,6S)-6-(3-((1-(2-((4′-((E)-(8-amino-1-hydroxy-5,7-disulfonicnaphthalen-2-yl)diazenyl)-3,3′-dimethyl-[1,1′-biphenyl]-4-yl)amino)-2-oxoethyl)-1H-1,2,3-triazol-4-yl)methoxy)-4-((((S)-4,11-diethyl-4-hydroxy-3,14-dioxy-3,4,12,14-tetrahydro-1H-pyrano[3′,4′:6,7]indolazino[1,2-b]quinolin-9-yl)oxy)methyl)phenoxy)-3,4,5-trihydroxytetrahydro-2H-pyran-2-carboxylate trisodium [Example 90]
IC50 ([6]; Adding βGU): 23 nM | IC50 ([6]; No βGU): 839 nM | T/C (%) ([1]; 10 mg/kg i.v. qw × 2): 23.7% | Tumor inhibition rate (%) ([1]; 10 mg/kg i.v. qw × 2): 81.7% | Relative volume RTV (X ± S.D.) [11]: 1.30 ± 0.36 | T/C (%) [11]: 25.3% | Tumor inhibition rate (%) [11]: 83.5% | Tumor weight (g, X ± S.D.) [11]: 0.197 ± 0.085 g | Relative volume RTV (X ± S.D.) [12]: 0.89 ± 0.10 | T/C (%) [12]: 23.9% | Tumor inhibition rate (%) [12]: 77.0% | Tumor weight (g, X ± S.D.) [12]: 0.627 ± 0.408 g | IC50 ([10]; Adding βGU): 4.3 nM | IC50 ([10]; No βGU): 79 nM

(2S,3S,4S,5R,6S)-6-(3-((1-(5-((4′-((E)-(8-amino-1-hydroxy-5,7-disulfonicnaphthalen-2-yl)diazenyl)-3,3′-dimethyl-[1,1′-biphenyl]-4-yl)amino)-5-oxopentyl)-1H-1,2,3-triazol-4-yl)methoxy)-4-((((S)-4,11-diethyl-4-hydroxy-3,14-dioxy-3,4,12,14-tetrahydro-1H-pyrano[3′,4′:6,7]indolazino[1,2-b]quinolin-9-yl)oxy)methyl)phenoxy)-3,4,5-trihydroxytetrahydro-2H-pyran-2-carboxylate trisodium [Example 85]
IC50 ([6]; Adding βGU): 31 nM | IC50 ([6]; No βGU): 178 nM | IC50 ([13]; Adding βGU): 15 nM | IC50 ([13]; No βGU): 706 nM | Relative volume RTV (X ± S.D.) ([2]; 25 mg/kg i.v. qw × 2): 0.23 ± 0.05 | T/C (%) ([2]; 25 mg/kg i.v. qw × 2): 4.8% | Tumor inhibition rate (%) ([2]; 25 mg/kg i.v. qw × 2): 97.2% | Tumor weight (g, X ± S.D.) ([2]; 25 mg/kg i.v. qw × 2): 0.047 ± 0.027 g | Final body weight change (%) ([2]; 25 mg/kg i.v. qw × 2, nude mouse): 4.0% | Relative volume RTV (X ± S.D.) [11]: 0.67 ± 0.24 | T/C (%) [11]: 13.0% | Tumor inhibition rate (%) [11]: 93.6% | Tumor weight (g, X ± S.D.) [11]: 0.076 ± 0.014 g | Final body weight change (%) ([11]; 20 mg/kg i.v. qw × 2, nude mouse): 10.0% | Relative volume RTV (X ± S.D.) [14, 20]: 0.48 ± 0.11 | T/C (%) [14, 20]: 13.7% | Tumor inhibition rate (%) [14, 20]: 90.0% | Tumor weight (g, X ± S.D.) [14, 20]: 0.301 ± 0.051 g | Final body weight change (%) ([14]; BxPC-3 tumors more than 600 mm^3 after irinotecan 100 mg/kg i.p. qw × 2): 0.4% | IC50 ([15]; Adding βGU): 19 nM | IC50 ([15]; No βGU): 864 nM | IC50 ([16]; Adding βGU): 9 nM | IC50 ([16]; No βGU): 248 nM | IC50 ([17]; Adding βGU): 50 nM | IC50 ([17]; No βGU): 721 nM | IC50 ([10]; Adding βGU): 9.7 nM | IC50 ([10]; No βGU): 71 nM

(2S,3S,4S,5R,6S)-6-(3-((1-(6-((4′-((E)-(8-amino-1-hydroxy-5,7-disulfonicnaphthalen-2-yl)diazenyl)-3,3′-dimethoxy-[1,1′-biphenyl]-4-yl)amino)-6-oxohexyl)-1H-1,2,3-triazol-4-yl)methoxy)-4-(((S)-4,11-diethyl-4-hydroxy-3,14-dioxy-3,4,12,14-tetrahydro-1H-pyrano[3′,4′:6,7]indolizino[1,7]quinolin-9-yl)oxy)methyl)phenoxy)-3,4,5-trihydroxytetrahydro-2H-pyran-2-carboxylate trisodium [Example 69]
IC50 ([3]; Adding βGU (β-glucuronidase)): 8.2 nM | IC50 [3, 19]: 181 nM | IC50 ([4]; Adding βGU): 7.7 nM | IC50 ([4]; No βGU): 361 nM | IC50 ([5]; Adding βGU): 11 nM | IC50 ([5]; No βGU): 592 nM | IC50 ([6]; Adding βGU): 32 nM | IC50 ([6]; No βGU): 350 nM | IC50 ([7]; Adding βGU): 16 nM | IC50 ([7]; No βGU): 720 nM | IC50 ([8]; Adding βGU): 13 nM | IC50 ([8]; No βGU): 566 nM | T/C (%) [18]: 1.1% | Tumor inhibition rate (%) [18]: 99.1% | IC50 ([10]; Adding βGU): 10 nM | IC50 ([10]; No βGU): 88 nM

(2S,3S,4S,5R,6S)-6-(3-((1-(8-((4′-((E)-(8-amino-1-hydroxy-5,7-disulfonicnaphthalen-2-yl)diazenyl)-3,3′-dimethyl-[1,1′-biphenyl]-4-yl)amino)-8-oxooctyl)-1H-1,2,3-triazol-4-yl)methoxy)-4-((((S)-4,11-diethyl-4-hydroxy-3,14-dioxy-3,4,12,14-tetrahydro-1H-pyrano[3′,4′:6,7]indolizino[1,2-b]quinolin-9-yl)oxy)methyl)phenoxy)-3,4,5-trihydroxytetrahydro-2H-pyran-2-carboxylate trisodium [Example 40]
IC50 ([3]; Adding βGU (β-glucuronidase)): 6.1 nM | IC50 [3, 19]: 218 nM | IC50 ([4]; Adding βGU): 6.9 nM | IC50 ([4]; No βGU): 244 nM | IC50 ([5]; Adding βGU): 23 nM | IC50 ([5]; No βGU): 302 nM | IC50 ([6]; Adding βGU): 30 nM | IC50 ([6]; No βGU): 1570 nM | IC50 ([7]; Adding βGU): 41 nM | IC50 ([7]; No βGU): 658 nM | IC50 ([8]; Adding βGU): 15 nM | IC50 ([8]; No βGU): 943 nM | T/C (%) [18]: 2.9% | Tumor inhibition rate (%) [18]: 97.2% | IC50 ([10]; Adding βGU): 6.9 nM | IC50 ([10]; No βGU): 217 nM

(2S,3S,4S,5R,6S)-6-(3-((1-(8-((4′-((E)-(8-amino-1-hydroxy-5,7-disulfonicnaphthalen-2-yl)diazenyl)-[1,1′-biphenyl]-4-yl)amino)-8-oxooctyl)-1H-1,2,3-triazol-4-yl)methoxy)-4-((((S)-4,11-diethyl-4-hydroxy-3,14-dioxo-3,4,12,14-tetrahydro-1H-pyrano[3′,4′: 6,7]indolazino[1,2-b]quinolin-9-yl)oxy)methyl)phenoxy)-3,4,5-trihydroxytetrahydro-2H-pyran-2-carboxylate trisodium [Example 47]
IC50 ([3]; Adding βGU (β-glucuronidase)): 12 nM | IC50 [3, 19]: 183 nM | IC50 ([4]; Adding βGU): 6.7 nM | IC50 ([4]; No βGU): 329 nM | IC50 ([5]; Adding βGU): 22 nM | IC50 ([5]; No βGU): 310 nM | IC50 ([6]; Adding βGU): 62 nM | IC50 ([6]; No βGU): 1480 nM | IC50 ([7]; Adding βGU): 27 nM | IC50 ([7]; No βGU): 698 nM | IC50 ([8]; Adding βGU): 17 nM | IC50 ([8]; No βGU): 350 nM | T/C (%) [18]: 3.5% | Tumor inhibition rate (%) [18]: 96.2% | IC50 ([10]; Adding βGU): 14 nM | IC50 ([10]; No βGU): 172 nM

Reference: patent US20250325676A1, “CAMPTOTHECIN PRODRUG AND PHARMACEUTICAL COMPOSITION THEREOF” (TIANJIN HEMAY ONCOLOGY PHARMACEUTICAL CO., LTD, priority 2022, published 2025)
